Test results: patent US20040106802A1, “Novel compounds and therapeutic uses thereof” (TORRENT PHARMACEUTICALS LTD., priority 2002, published 2004)
Counter-ions that a name gives are not always drawn. Like-named read-outs stand apart in the source and are kept apart here.

Experiments:
[1] = In-vitro free radical scavenging activity using DPPH free radical; settings: 30° C., 30 minutes, 515 nm
Text: Free Radical Scavenging Activity:
To determine the in-vitro free radical scavenging activity of compounds of general formula-I on 2,2,-diphenyl-1-picrylhydrazyl (DPPH)radical (Ref: W. Brand-Williams, M. E. Cuvelier, C. Berset “Use of a free radical method to evaluate antioxidant activity”, Lebensm.- Wiss.u.Technol.,1995,28,Nr.1:25-30).
To evaluate the free radical scavenging activity of compounds they are allowed to react with stable radical DPPH*. In its radical form, DPPH* absorbed at the characteristic wave length of 515 nm, but upon reduction by an antioxidant or radical scavenger (AH), the absorption disappears.
10^−4M solution of DPPH* was prepared in methanol.
Various concentrations (10 mM, 1 mM, 0.5 mM, 0.25 mM and 0.125 mM) of drug solutions were prepared in methanol.
900 μl of DPPH radical solution was added to an eppendorf tube. To it was added 100 μl of methanol.
900 μl of DPPH radical solution was added to an eppendorf tube. To it was added 100 μl of various concentrations of drug solutions in methanol.
The absorbance of control and test samples was recorded after incubation at 30° C. for 30 minutes, at 515 nm taking methanol as blank.
The percent antioxidant activity was calculated according to the formula:
% Antioxidant activity=100−[O.D of test sample/O.D of control*100]

Porcine DPP-IV = target: T1, Porcine DPP-IV (Sus scrofa, UniProt P22411); assay: Assay of DPP-IV enzyme inhibitory activity (spectrophotometric, Gly-Pro-pNA cleavage); type: biochemical
T1 construct: purchased Sigma-Aldrich Germany
T1 sequence (P22411 whole entry): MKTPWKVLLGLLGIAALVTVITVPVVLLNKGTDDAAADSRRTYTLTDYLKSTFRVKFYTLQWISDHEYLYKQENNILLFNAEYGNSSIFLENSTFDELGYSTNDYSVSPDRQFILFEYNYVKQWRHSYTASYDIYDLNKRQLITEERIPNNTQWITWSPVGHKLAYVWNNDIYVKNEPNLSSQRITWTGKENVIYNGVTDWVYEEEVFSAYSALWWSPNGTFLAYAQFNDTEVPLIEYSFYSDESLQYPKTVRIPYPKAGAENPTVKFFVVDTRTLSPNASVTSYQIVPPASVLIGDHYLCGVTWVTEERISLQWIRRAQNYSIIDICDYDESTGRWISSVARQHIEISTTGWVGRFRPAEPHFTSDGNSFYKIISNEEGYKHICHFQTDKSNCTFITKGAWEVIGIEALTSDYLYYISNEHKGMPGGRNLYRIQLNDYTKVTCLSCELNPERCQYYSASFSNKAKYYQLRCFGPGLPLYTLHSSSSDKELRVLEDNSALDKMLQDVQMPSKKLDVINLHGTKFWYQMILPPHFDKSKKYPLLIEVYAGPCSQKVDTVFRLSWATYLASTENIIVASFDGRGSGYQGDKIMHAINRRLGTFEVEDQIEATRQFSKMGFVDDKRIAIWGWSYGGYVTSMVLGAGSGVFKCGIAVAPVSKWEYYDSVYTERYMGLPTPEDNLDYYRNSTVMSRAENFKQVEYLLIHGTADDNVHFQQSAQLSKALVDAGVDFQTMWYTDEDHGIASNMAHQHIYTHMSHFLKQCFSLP

[2] = Porcine DPP-IV, Gly-Pro-pNA substrate, 30° C., mean ± SD of three experiments except compound Nos. 133 & 139, read-out: IC50 (μM) Mean ± SD, inhibitory activity on DPP-IV enzyme activity
[3] = read-out: dipeptidyl peptidase-IV inhibitory IC50's in the range

| SMILES | % Activity (antioxidant, DPPH) ([1]; Concentration 12.5 μM) [%] | % Activity (antioxidant, DPPH) ([1]; Concentration 25 μM) [%] | % Activity (antioxidant, DPPH) ([1]; Concentration 50 μM) [%] | % Activity (antioxidant, DPPH) ([1]; Concentration 100 μM) [%] | IC50 (Porcine DPP-IV; [2]) [µM] | other results |
| --- | --- | --- | --- | --- | --- | --- |
| COc1ccc(S(=O)(=O)N2CCC(N(N)CC(=O)N3CSCC3C#N)CC2)cc1.O=C(O)C(F)(F)F (stereo not shown) [Compound No. 91, 3-[1-oxo-2-[1-(1-(4-methoxyphenylsulphonyl)-piperidin-4-yl)]hydrazino]ethyl-4-cyanothiazolidine trifluoroacetate] | 17.16 | 38.11 | 58.87 | 85.69 | 6.7 ± 0.4 |  |
| N#CC1CSCN1C(=O)CN(N)C1CCN(CC(=O)Nc2ncccn2)CC1 (stereo not shown) [Compound No. 106, 3 [2-oxo-2-[1-(1-(2-oxo-2(pyrimidin-2-yl)aminoethyl)piperidin-4-yl)]hydrazino]ethyl-4-cyanothiazolidine tris-trifluoroacetate] | 24.86 | 42.52 | 70.39 | 72.86 | 0.143 ± 0.02 |  |
| N#CC1CSCN1C(=O)CN(N)C1CCN(CC(=O)Nc2cccnc2Cl)CC1 (stereo not shown) [compound 121] |  |  |  | 57.13 |  |  |
| N#CC1CSCN1C(=O)CN(N)C1CCN(CC(=O)NC23CC4CC(CC(C4)C2)C3)CC1 (stereo not shown) [Compound No. 103, 3-[1-oxo-2-[1-(1-(2-oxo-2(-adamant-1-yl)aminoethyl)piperidin-4-yl)]hydrazino]ethyl-4-cyanothiazolidine bis-trifluoroacetate] | 20.41 | 40.80 | 44.09 | 54.81 | 0.523 ± 0.017 |  |
| N#Cc1ccc(NC(=O)CN2CCC(N(N)CC(=O)N3CSCC3C#N)CC2)nc1 (stereo not shown) [compound 120, 3-[1-oxo-2-(1-(1-(2-oxo-2(5-cyanopyridin-2-yl)aminoethyl)piperidin-4-yl))hydrazino]ethyl-4-cyanothiazolidine, tris-trifluoroacetate] |  |  |  | 55.03 | 0.09 ± 0.02 |  |
| N#CC1CSCN1C(=O)CN(N)C1CCN(CC(=O)NC2CC2)CC1 (stereo not shown) [Compound No. 108, 3[1-oxo-2-[1-(1-(2-oxo-2-(cyclopropyl)aminoethyl)piperidin-4-yl)]hydrazino]ethyl-4-cyanothiazolidine bis-trifluoroacetate] | 20.19 | 26.25 | 34.71 | 52.72 | 0.236 ± 0.025 | IC50 (Porcine DPP-IV; [3]): 0.088 to 0.25 µM |
| CC1CCC(N(N)CC(=O)N2CSCC2C#N)CC1.O=C(O)C(F)(F)F (stereo not shown) [Compound No. 29, 3-[1-Oxo-2-((1-(4-methyl)cyclohexyl)-hydrazino)]ethyl-4-cyano thiazolidine trifluoroacetate] |  |  |  |  | 0.8 ± 0.15 | % Activity (antioxidant, DPPH) ([1]; Concentration 100 μM, 100 µM): 93.70% |
| CC(C)NN(CC(=O)N1CSCC1C#N)C1CCN(S(C)(=O)=O)CC1.O=C(O)C(F)(F)F (stereo not shown) [Compound No. 87, 3-[1-oxo-2-[1-(1 (methylsulphonyl)-piperidin-4-yl)-2-isopropyl]hydrazino]ethyl-4-cyanothiazolidine trifluoroacetate] | 12.87 | 30.88 | 44.03 | 55.94 | 18.3 ± 3.2 |  |
| N#CC1CSCN1C(=O)CN(N)C1CCN(CC(=O)Nc2ccc3c(c2)OCCO3)CC1 (stereo not shown) [Compound No. 104, 3-[1-oxo-2-[1-(1-(2-oxo-2(2,3dihydrobenzo(1,4)dioxan-6-yl)aminoethyl)piperidin-4-yl)]hydrazino]ethyl-4-cyano-thiazolidine bis-trifluoroacetate] | 19.40 | 36.23 | 42.20 | 50.14 |  |  |
| Cc1nc(NC(=O)CN2CCC(N(N)CC(=O)N3CSCC3C#N)CC2)sc1C (stereo not shown) [compound 119, 3-[1-oxo-2-(1-(1-(2-oxo-2-(4,5-dimethylthiazole-2-yl)aminoethyl)piperidin-4-yl)) hydrazino]ethyl-4-cyanothiazolidine, tris-trifluoroacetate] |  |  |  | 54.93 | 0.185 ± 0.01 |  |
| CS(=O)(=O)NC1CCC(N(N)CC(=O)N2CSCC2C#N)CC1 (stereo not shown) [Compound No. 114, 3-[1-oxo-2-(1-(1-methanesulphonylamino-4-cyclohexyl)hydrazino)]ethyl-4-cyanothiazolidine hydrochloride] | 19.23 | 39.37 | 78.16 | 92.76 | 0.397 ± 0.02 |  |
| N#CC1CSCN1C(=O)CN(N)C1CCCCC1.O=C(O)C(F)(F)F (stereo not shown) [Compound No. 21, 3-[1-Oxo-2-((1-Cyclohexyl)-hydrazino)]ethyl-4-cyano thiazolidine trifluoroacetate] |  |  |  | 95.71 | 2.01 ± 0.16 |  |
| N#Cc1ccc(NC(=O)CN2CCC(N(N)CC(=O)N3CSCC3C#N)CC2)cc1 (stereo not shown) [Compound No. 99, 3-[1-oxo-2-[1-(1-(2-oxo-2-(4-cyanophenyl)aminoethyl)piperidin-4-yl)]hydrazino]ethyl-4-cyanothiazolidine bis-trifluoroacetate] | 15.12 | 24.87 | 39.13 | 53.33 | 0.2 ± 0.04 | IC50 (Porcine DPP-IV; [3]): 0.088 to 0.25 µM |
| N#CC1CSCN1C(=O)CN(N)C1CCCC1.O=C(O)C(F)(F)F (stereo not shown) [Compound No. 19, 3-[1-Oxo-2-((1-Cyclopentyl)-hydrazino)]ethyl-4-cyano thiazolidine trifluoroacetate] |  |  |  | 94.55 | 1.46 ± 0.16 |  |
| CC(C)(C)C(=O)NC1CCC(N(N)CC(=O)N2CSCC2C#N)CC1.O=C(O)C(F)(F)F (stereo not shown) [Compound No. 98, 3-[1-oxo-2-[(1-(trimethylacetamido)cyclohexan-4-yl)]hydrazino]ethyl-4-cyanothiazolidine trifluoroacetate] |  |  |  |  | 0.71 ± 0.01 | % Activity (antioxidant, DPPH) ([1]; Concentration 12.5 μM, 12.5 µM): 21.99%; % Activity (antioxidant, DPPH) ([1]; Concentration 25 μM, 25 µM): 40.77%; % Activity (antioxidant, DPPH) ([1]; Concentration 50 μM, 50 µM): 59.21%; % Activity (antioxidant, DPPH) ([1]; Concentration 100 μM, 100 µM): 73.35% |
| N#CC1CSCN1C(=O)CN(N)C1CCN(CC(=O)Nc2ccc(C(F)(F)F)cc2)CC1 (stereo not shown) [Compound No. 102, 3-[1-oxo-2-[-1-(1-(2-oxo-2(4-trifluorophenyl)aminoethyl)piperidin-4-yl)]hydrazino]ethyl-4-cyanothiazolidine bis-trifluoroacetate] | 20.90 | 29.56 | 34.26 | 50.15 | 0.308 ± 0.06 |  |
| CCNN(CC(=O)N1CSCC1C#N)C1CCC(NS(C)(=O)=O)CC1 (stereo not shown) [Compound No. 97, 3-[1-oxo-2-[1-(1-(methanesulphonyl)aminocyclohexan-4-yl)-2-ethyl]hydrazino]ethyl-4-cyanothiazolidine] | 18.06 | 38.30 | 66.99 | 91.67 | 1.03 ± 0.07 |  |
| N#CC1CSCN1C(=O)CN(N)C1CCC(NC(=O)c2ccc(F)cc2)CC1.O=C(O)C(F)(F)F (stereo not shown) [Compound No. 100] | 31.14 | 41.49 | 59.54 | 77.75 |  |  |
| N#CC1CSCN1C(=O)CN(N)C1CCN(CC(=O)Nc2ccc(Cl)cc2)CC1 (stereo not shown) [Compound No. 105, 3-[1-oxo-2-[1-(1-(2-oxo-2(4-chlorophenyl)aminoethyl)piperidin-4-yl)]hydrazino]ethyl-4-cyanothiazolidine bis-trifluoroacetate] | 24.03 | 35.27 | 49.25 | 49.63 |  |  |
| N#CC1CSCN1C(=O)CN(N)C1CCN(CC(=O)Nc2ccc(Cl)cn2)CC1 (stereo not shown) [Compound No. 115, 3-[-1-oxo-2-[1-(1-(−2-oxo-2-(5-chloropyridin-2-yl)aminoethyl)piperidine-4-yl)]hydrazino]ethyl-4-cyanothiazolidine trihydrochloride] |  |  |  |  |  | % Activity (antioxidant, DPPH) ([1]; Concentration 12.5 μM, trihydrochloride, 12.5 µM): 19.46%; % Activity (antioxidant, DPPH) ([1]; Concentration 25 μM, trihydrochloride, 25 µM): 26.94%; % Activity (antioxidant, DPPH) ([1]; Concentration 50 μM, trihydrochloride, 50 µM): 46.24%; % Activity (antioxidant, DPPH) ([1]; Concentration 100 μM, trihydrochloride, 100 µM): 75.84% |
